We go through 77 molecules from patent publication US8501953B2, “PKM2 modulators for use in the treatment of cancer” (Agios Pharmaceuticals, Inc, priority 2009, dated 2013).

Chain of PKM2 (P14618 whole entry): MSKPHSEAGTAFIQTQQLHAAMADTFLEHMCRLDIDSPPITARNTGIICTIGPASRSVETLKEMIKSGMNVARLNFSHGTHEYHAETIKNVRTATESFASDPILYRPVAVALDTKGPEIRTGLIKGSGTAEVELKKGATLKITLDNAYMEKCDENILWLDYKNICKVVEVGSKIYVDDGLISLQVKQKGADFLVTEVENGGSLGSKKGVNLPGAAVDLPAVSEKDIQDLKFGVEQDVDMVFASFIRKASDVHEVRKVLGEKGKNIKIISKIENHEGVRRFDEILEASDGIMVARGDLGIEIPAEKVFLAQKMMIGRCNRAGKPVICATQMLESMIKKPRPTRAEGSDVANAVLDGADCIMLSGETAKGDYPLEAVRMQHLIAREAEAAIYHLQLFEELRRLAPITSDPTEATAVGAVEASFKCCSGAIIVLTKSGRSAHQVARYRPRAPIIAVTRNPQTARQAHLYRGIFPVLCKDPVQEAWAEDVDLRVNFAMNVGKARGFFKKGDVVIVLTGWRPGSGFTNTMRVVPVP

This test deals with PKM2 (Homo sapiens, UniProt P14618). Briefly: PKM2 Assay (activation; LDH-coupled, NADH absorbance at 340 nm). The note with it: PKM2 50 ng/well, ADP 0.7 mM, PEP 0.15 mM, no FBP in Reaction Mix. In kind it is biochemical. As for the experimental part:
• PKM2 stock enzyme solution was diluted in Reaction Buffer • 2 μL of compound was added into each well first, and then 180 μL of the Reaction Mix was added. • Reaction mixture with compound (without ADP) were incubated for 30 minutes at 4° C. • Plates were re-equilibrated to room temperature prior to adding 20 μL ADP to initiate the reaction. • Reaction progress was measured as changes in absorbance at 340 nm wavelength at room temperature (25° C.) Reaction Mix: PKM2 (50 ng/well), ADP (0.7 mM), PEP (0.15 mM), NADH (180 μM), LDH (2 units) in Reaction Buffer Reaction Buffer: 100 mM KCl, 50 mM Tris pH 7.5, 5 mM MgCl2, 1 mM DTT, 0.03% BSA.
The molecule `Cn1c(=O)sc2cc(NS(=O)(=O)c3cccs3)ccc21` came in with an AC50 of 10 to 50 µM.

`COc1ccc(Cl)cc1NS(=O)(=O)c1ccc2c(c1)oc(=O)n2C` came in with an AC50 of 1 to 10 µM.

`COc1ccc(Cl)cc1S(=O)(=O)Nc1cc2[nH]c(=O)oc2cc1C`: the concentration at half-maximal activity (AC50) fell in the range of 1 to 10 µM.

For `Cc1cc2c(cc1S(=O)(=O)Nc1ccccc1Cl)oc(=O)n2C`, the half-maximal activity concentration (AC50) was 1 to 10 µM.

For `CCn1c(=O)oc2cc(S(=O)(=O)Nc3ccc(F)cc3)ccc21`, the AC50 fell in the range of 1 to 10 µM.

`Cc1cc2oc(=O)n(C)c2cc1NS(=O)(=O)c1cc(Cl)cc(Cl)c1` returned a half-maximal activity concentration (AC50) of 10 to 50 µM.

Molecule `Cc1cc(C)cc(NS(=O)(=O)c2ccc3c(c2)oc(=O)n3C)c1` yielded a concentration at half-maximal activity (AC50) below 1 µM.

The molecule `COc1ccc(S(=O)(=O)Nc2cc3c(cc2Cl)oc(=O)n3C)cc1OC` gave a concentration at half-maximal activity (AC50) of 10 to 50 µM.

`COc1ccc(S(=O)(=O)Nc2cc3[nH]c(=O)oc3cc2Cl)cc1OC` yielded an AC50 above 100 µM.

`CCn1c(=O)oc2cc(S(=O)(=O)Nc3cc(Cl)ccc3OC)c(C)cc21` registered an AC50 of 1 to 10 µM.

`COc1cccc(S(=O)(=O)Nc2cc3c(cc2C)oc(=O)n3C)c1` had a concentration at half-maximal activity (AC50) of 10 to 50 µM.

`Cn1c(=O)sc2cc(S(=O)(=O)Nc3ccc(F)cc3)ccc21` had a half-maximal activity concentration (AC50) below 1 µM.

`Cn1c(=O)oc2cc(Cl)c(S(=O)(=O)Nc3ccccc3Cl)cc21` returned an AC50 of 1 to 10 µM.

`Cc1cc2oc(=O)n(C)c2cc1NS(=O)(=O)c1ccc(F)c(F)c1` had an AC50 above 100 µM.

As to `Cc1cc2oc(=O)n(C)c2cc1S(=O)(=O)Nc1ccccc1Cl`, the AC50 fell in the range of 1 to 10 µM.

The molecule `COc1ccc(Cl)cc1S(=O)(=O)Nc1cc2c(cc1F)oc(=O)n2C` gave an AC50 of 10 to 50 µM.

Take `Cc1cc(C)cc(NS(=O)(=O)c2cc3c(cc2C)oc(=O)n3C)c1`: the half-maximal activity concentration (AC50) is below 1 µM.

Take `Cc1cc2oc(=O)n(C)c2cc1NS(=O)(=O)c1ccccc1Cl`: the half-maximal activity concentration (AC50) lay in the range of 10 to 50 µM.

`O=c1[nH]c2cc(NS(=O)(=O)c3cccs3)c(Cl)cc2o1`: the half-maximal activity concentration (AC50) was 1 to 10 µM.

`Cc1cc2oc(=O)n(C)c2cc1S(=O)(=O)Nc1ccc(F)cc1`: the AC50 was below 1 µM.

`Cc1cc2oc(=O)n(C)c2cc1NS(=O)(=O)c1c(F)cccc1F` gave a concentration at half-maximal activity (AC50) above 100 µM.

`CCn1c(=O)oc2cc(Cl)c(S(=O)(=O)Nc3ccccc3Cl)cc21` had an AC50 above 100 µM.

On to `O=c1[nH]c2cc(NS(=O)(=O)c3cccs3)ccc2o1`, for which the half-maximal activity concentration (AC50) fell in the range of 10 to 50 µM.

`Cn1c(=O)oc2cc(F)c(S(=O)(=O)Nc3ccc(F)cc3)cc21` yielded an AC50 of 1 to 10 µM.

`Cn1c(=O)oc2cc(S(=O)(=O)NC3CCCCC3)ccc21`: the half-maximal activity concentration (AC50) was in the range of 1 to 10 µM.

`Cn1c(=O)oc2cc(S(=O)(=O)Nc3cccc4ccccc34)ccc21` displayed an AC50 of 1 to 10 µM.

For the molecule `Cn1c(=O)oc2cc(S(=O)(=O)Nc3ccc4ccccc4c3)ccc21`, the AC50 lay in the range of 1 to 10 µM.

In turn, `Cn1c(=O)oc2cc(S(=O)(=O)Nc3ccc4ncccc4c3)ccc21` returned a concentration at half-maximal activity (AC50) of 1 to 10 µM.

In the case of `Cn1c(=O)oc2cc(S(=O)(=O)Nc3cccc4ncccc34)ccc21`, the half-maximal activity concentration (AC50) is 10 to 50 µM.

Regarding `Cn1c(=O)oc2cc(S(=O)(=O)Nc3ccc(F)c(C(F)(F)F)c3)ccc21`, the AC50 is below 1 µM.

In turn, `Cn1c(=O)oc2cc(S(=O)(=O)Nc3ccc4ncn(S(=O)(=O)c5cccc6c5oc(=O)n6C)c4c3)ccc21` yielded an AC50 of 1 to 10 µM.

`COCCn1c(=O)oc2cc(S(=O)(=O)Nc3cccc(Cl)c3)ccc21`: the concentration at half-maximal activity (AC50) was below 1 µM.

Regarding `COCCn1c(=O)oc2cc(S(=O)(=O)Nc3ccc(F)c(Cl)c3)ccc21`, the concentration at half-maximal activity (AC50) was below 1 µM.

The molecule `COCCn1c(=O)oc2cc(S(=O)(=O)Nc3ccc(F)c(C)c3)ccc21` returned an AC50 below 1 µM.

`COCCn1c(=O)oc2cc(S(=O)(=O)Nc3cccc(Cl)c3)cc(C)c21` registered a concentration at half-maximal activity (AC50) below 1 µM.

In the case of `COCCn1c(=O)oc2cc(S(=O)(=O)Nc3ccc(F)c(Cl)c3)cc(C)c21`, the concentration at half-maximal activity (AC50) is below 1 µM.

Molecule `Cc1cc(NS(=O)(=O)c2cc(C)c3c(c2)oc(=O)n3C)ccc1F` showed an AC50 below 1 µM.

For the molecule `Cc1cc(S(=O)(=O)Nc2cccc(Cl)c2)cc2oc(=O)n(C)c12`, the half-maximal activity concentration (AC50) is below 1 µM.

Molecule `Cc1cc(S(=O)(=O)Nc2ccc(F)c(Cl)c2)cc2oc(=O)n(C)c12` returned an AC50 below 1 µM.

Take `COCCn1c(=O)oc2cc(S(=O)(=O)Nc3ccc(F)c(C)c3)cc(C)c21`: the AC50 was below 1 µM.

In turn, `Cc1cc(NS(=O)(=O)c2cc(C)c3c(c2)oc(=O)n3CCN2CCOCC2)ccc1F` gave an AC50 of 1 to 10 µM.

Turning to `Cc1cc(S(=O)(=O)Nc2ccc(F)c(Cl)c2)cc2oc(=O)n(CCN(C)C)c12`, the AC50 was below 1 µM.

As for `Cc1cc(NS(=O)(=O)c2cc(CN3CCCCC3)c3c(c2)oc(=O)n3C)ccc1F`, the concentration at half-maximal activity (AC50) fell in the range of 1 to 10 µM.

Molecule `Cc1cc(NS(=O)(=O)c2cc(CN3CCOCC3)c3c(c2)oc(=O)n3C)ccc1F` yielded an AC50 of 1 to 10 µM.

Turning to `Cc1cc(NS(=O)(=O)c2cc(CN(C)C)c3c(c2)oc(=O)n3C)ccc1F`, the AC50 is above 100 µM.

As to `Cn1c(=O)oc2cc(Cl)c(S(=O)(=O)Nc3ccccc3F)cc21`, the AC50 lay in the range of 1 to 10 µM.

Turning to `Cn1c(=O)oc2cc(F)c(S(=O)(=O)Nc3c(F)cccc3F)cc21`, the half-maximal activity concentration (AC50) was above 100 µM.

The molecule `Cc1cc2oc(=O)n(C)c2cc1S(=O)(=O)N1CCN(c2ccc(C(F)(F)F)cn2)CC1` came in with an AC50 of 1 to 10 µM.

`Cc1cc(C)cc(NS(=O)(=O)c2ccc3oc(=O)n(C)c3c2)c1` gave a half-maximal activity concentration (AC50) below 1 µM.

As for `Cc1cc2oc(=O)n(C)c2cc1S(=O)(=O)N1CCCN(c2ccc(C(F)(F)F)cn2)CC1`, the AC50 is 1 to 10 µM.

Turning to `Cn1c(=O)oc2cc(F)c(S(=O)(=O)N3CCN(S(=O)(=O)c4ccc5c(c4)OCCO5)CC3)cc21`, the concentration at half-maximal activity (AC50) is below 1 µM.

Molecule `COc1ccc(Cl)cc1S(=O)(=O)N1CCN(S(=O)(=O)c2cc3c(cc2F)oc(=O)n3C)CC1` gave an AC50 below 1 µM.

In turn, `Cn1c(=O)oc2cc(F)c(S(=O)(=O)N3CCN(S(=O)(=O)c4c(F)cccc4F)CC3)cc21` displayed a concentration at half-maximal activity (AC50) below 1 µM.

The molecule `COc1ccc(Cl)cc1S(=O)(=O)Nc1ccc(NS(=O)(=O)c2cc3c(cc2C)oc(=O)n3C)cc1` registered an AC50 above 100 µM.

As to `Cc1cc2oc(=O)n(C)c2cc1S(=O)(=O)Nc1cc(F)cc(F)c1`, the concentration at half-maximal activity (AC50) lay in the range of 1 to 10 µM.

Regarding `Cc1ccc(NS(=O)(=O)c2cc3c(cc2C)oc(=O)n3C)cc1F`, the AC50 was below 1 µM.

In turn, `Cc1cc2oc(=O)n(C)c2cc1S(=O)(=O)Nc1ccc(OC(F)(F)F)c(Cl)c1` showed an AC50 of 1 to 10 µM.

For the molecule `Cc1ccc(NS(=O)(=O)c2cc3c(cc2C)oc(=O)n3C)cc1C`, the concentration at half-maximal activity (AC50) was below 1 µM.

Regarding `Cc1cc2oc(=O)n(C)c2cc1S(=O)(=O)Nc1ccc2c(c1)OCO2`, the AC50 was below 1 µM.

Molecule `COc1cc(NS(=O)(=O)c2cc3c(cc2C)oc(=O)n3C)cc(OC)c1` registered a concentration at half-maximal activity (AC50) of 1 to 10 µM.

The molecule `Cc1cc(C)cc(NS(=O)(=O)c2cc3c(cc2F)oc(=O)n3C)c1` displayed an AC50 below 1 µM.

The molecule `CC(=O)Nc1ccc(NS(=O)(=O)c2cc3c(cc2C)oc(=O)n3C)cc1` showed an AC50 above 100 µM.

On to `Cc1cc(NS(=O)(=O)c2cc3c(cc2C)oc(=O)n3C)ccc1Cl`, for which the AC50 was below 1 µM.

Consider `Cc1cc2oc(=O)n(C)c2cc1S(=O)(=O)Nc1cccc(Cl)c1`, for which the AC50 was below 1 µM.

`Cc1cc2oc(=O)n(C)c2cc1S(=O)(=O)Nc1ccc(Cl)c(C(F)(F)F)c1` yielded an AC50 of 1 to 10 µM.

`Cc1cc2oc(=O)n(C)c2cc1S(=O)(=O)Nc1ccc(Cl)c(Cl)c1` displayed an AC50 of 1 to 10 µM.

With `Cc1cc2oc(=O)n(C)c2cc1S(=O)(=O)Nc1ccc(Cl)c(F)c1`, the AC50 lay in the range of 1 to 10 µM.

As to `Cc1cc2oc(=O)n(C)c2cc1S(=O)(=O)Nc1ccc(F)c(Cl)c1`, the AC50 was below 1 µM.

Molecule `Cc1cc2oc(=O)n(C)c2cc1S(=O)(=O)Nc1cc(F)cc(Cl)c1` displayed an AC50 of 1 to 10 µM.

For the molecule `CCc1cccc(NS(=O)(=O)c2cc3c(cc2C)oc(=O)n3C)c1`, the concentration at half-maximal activity (AC50) is below 1 µM.

`COCCn1c(=O)oc2cc(C)c(S(=O)(=O)Nc3ccc(F)c(C)c3)cc21` registered a half-maximal activity concentration (AC50) of 1 to 10 µM.

Regarding `Cc1cc2oc(=O)n(C)c2cc1S(=O)(=O)N1CCN(C(=O)Cc2ccc(C(F)(F)F)cc2)CC1`, the half-maximal activity concentration (AC50) was above 100 µM.

Regarding `COCCn1c(=O)oc2cc(C)c(S(=O)(=O)Nc3ccc(F)c(Cl)c3)cc21`, the AC50 was 1 to 10 µM.

Take `COc1ccc(Cl)cc1S(=O)(=O)Nc1cc2c(cc1C)oc(=O)n2C` [drawing 27]: the AC50 is above 100 µM.

The molecule `COc1ccc(Cl)cc1S(=O)(=O)Nc1cc2c(cc1C)oc(=O)n2C` [drawing 47] came in with an AC50 below 1 µM.

Molecule `Cn1c(=O)oc2cc(F)c(S(=O)(=O)Nc3ccccc3)cc21` [drawing 56] registered an AC50 below 1 µM.

`Cn1c(=O)oc2cc(F)c(S(=O)(=O)Nc3ccccc3)cc21` [drawing 242] displayed a concentration at half-maximal activity (AC50) of 1 to 10 µM.

For orientation: AC50 means the concentration at which the activity in the assay is half-maximal. A lower AC50 goes with greater potency.
